Assay results reported in article PMC6199744, “Development of Chemical Proteomics for the Folateome and Analysis of the Kinetoplastid Folateome” (ACS Infectious Diseases, 2018).
Read-outs that look alike come from different tables or passages of the source.

Key:
Format in all cases: binding
[1] = target: T1, HeLa cell extract proteins (Homo sapiens, UniProt Q99623)
T1 construct: endogenous in cells; host or cells: HeLa cell extract

[2] = target: T2, HeLa cell extract proteins (Homo sapiens, UniProt Q9UKU7)
T2 construct: endogenous in cells; host or cells: HeLa cell extract
T2 sequence (Q9UKU7 23-415): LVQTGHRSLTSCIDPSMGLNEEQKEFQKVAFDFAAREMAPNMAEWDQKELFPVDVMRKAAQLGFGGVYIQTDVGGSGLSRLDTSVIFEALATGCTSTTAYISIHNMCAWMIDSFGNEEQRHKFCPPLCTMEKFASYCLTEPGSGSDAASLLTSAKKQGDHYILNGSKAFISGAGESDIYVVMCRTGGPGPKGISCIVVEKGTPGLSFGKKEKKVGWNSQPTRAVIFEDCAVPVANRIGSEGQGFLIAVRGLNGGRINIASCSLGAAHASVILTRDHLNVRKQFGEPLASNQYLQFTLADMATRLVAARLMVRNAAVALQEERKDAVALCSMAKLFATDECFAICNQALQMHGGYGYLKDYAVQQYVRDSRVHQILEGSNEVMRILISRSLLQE

[3] = target: T3, HeLa cell extract proteins (Homo sapiens, UniProt Q9BVS4)
T3 construct: endogenous in cells; host or cells: HeLa cell extract
T3 sequence (Q9BVS4 whole entry): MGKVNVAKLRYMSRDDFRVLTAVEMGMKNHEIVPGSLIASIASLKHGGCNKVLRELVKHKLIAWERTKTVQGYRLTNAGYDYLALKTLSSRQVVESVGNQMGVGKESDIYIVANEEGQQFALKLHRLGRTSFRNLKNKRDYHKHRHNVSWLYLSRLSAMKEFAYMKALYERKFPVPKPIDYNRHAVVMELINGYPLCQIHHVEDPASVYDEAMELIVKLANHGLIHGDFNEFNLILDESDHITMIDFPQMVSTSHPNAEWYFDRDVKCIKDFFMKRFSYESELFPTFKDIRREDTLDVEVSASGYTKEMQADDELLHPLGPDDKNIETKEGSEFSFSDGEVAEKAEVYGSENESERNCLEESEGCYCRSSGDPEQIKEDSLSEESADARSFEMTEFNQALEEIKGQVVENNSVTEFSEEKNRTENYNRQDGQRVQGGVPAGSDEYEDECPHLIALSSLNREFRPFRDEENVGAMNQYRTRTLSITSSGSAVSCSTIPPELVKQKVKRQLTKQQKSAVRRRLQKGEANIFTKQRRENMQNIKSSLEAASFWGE

[4] = target: T4, HeLa cell extract proteins (Homo sapiens, UniProt P05141)
T4 construct: endogenous in cells; host or cells: HeLa cell extract
T4 sequence (P05141 1-298): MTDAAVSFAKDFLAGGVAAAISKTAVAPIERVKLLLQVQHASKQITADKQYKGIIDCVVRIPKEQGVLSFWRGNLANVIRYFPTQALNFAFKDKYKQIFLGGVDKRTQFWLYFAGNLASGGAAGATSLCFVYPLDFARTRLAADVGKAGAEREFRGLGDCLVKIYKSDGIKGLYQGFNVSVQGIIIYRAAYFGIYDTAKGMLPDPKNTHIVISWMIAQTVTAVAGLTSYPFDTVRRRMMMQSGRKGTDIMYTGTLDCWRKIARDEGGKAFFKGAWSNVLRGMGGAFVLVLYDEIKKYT

[5] = target: T5, HeLa cell extract proteins (Homo sapiens, UniProt O43175)
T5 construct: endogenous in cells; host or cells: HeLa cell extract
T5 sequence (O43175 1-533): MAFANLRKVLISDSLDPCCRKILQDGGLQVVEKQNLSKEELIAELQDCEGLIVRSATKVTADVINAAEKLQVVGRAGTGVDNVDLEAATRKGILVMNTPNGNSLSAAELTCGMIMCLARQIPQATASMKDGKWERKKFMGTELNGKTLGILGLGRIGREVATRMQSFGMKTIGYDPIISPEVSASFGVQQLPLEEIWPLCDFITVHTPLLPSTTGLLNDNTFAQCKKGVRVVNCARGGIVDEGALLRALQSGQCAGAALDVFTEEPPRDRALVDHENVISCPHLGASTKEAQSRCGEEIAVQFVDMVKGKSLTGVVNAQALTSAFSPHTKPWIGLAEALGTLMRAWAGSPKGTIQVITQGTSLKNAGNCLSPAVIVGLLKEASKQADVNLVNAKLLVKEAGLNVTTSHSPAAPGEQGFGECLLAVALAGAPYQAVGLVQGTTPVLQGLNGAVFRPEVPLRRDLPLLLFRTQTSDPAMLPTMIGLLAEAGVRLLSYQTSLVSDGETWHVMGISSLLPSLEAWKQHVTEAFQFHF

[6] = target: T6, HeLa cell extract proteins (Homo sapiens, UniProt P35637)
T6 construct: endogenous in cells; host or cells: HeLa cell extract
T6 sequence (P35637 1-526): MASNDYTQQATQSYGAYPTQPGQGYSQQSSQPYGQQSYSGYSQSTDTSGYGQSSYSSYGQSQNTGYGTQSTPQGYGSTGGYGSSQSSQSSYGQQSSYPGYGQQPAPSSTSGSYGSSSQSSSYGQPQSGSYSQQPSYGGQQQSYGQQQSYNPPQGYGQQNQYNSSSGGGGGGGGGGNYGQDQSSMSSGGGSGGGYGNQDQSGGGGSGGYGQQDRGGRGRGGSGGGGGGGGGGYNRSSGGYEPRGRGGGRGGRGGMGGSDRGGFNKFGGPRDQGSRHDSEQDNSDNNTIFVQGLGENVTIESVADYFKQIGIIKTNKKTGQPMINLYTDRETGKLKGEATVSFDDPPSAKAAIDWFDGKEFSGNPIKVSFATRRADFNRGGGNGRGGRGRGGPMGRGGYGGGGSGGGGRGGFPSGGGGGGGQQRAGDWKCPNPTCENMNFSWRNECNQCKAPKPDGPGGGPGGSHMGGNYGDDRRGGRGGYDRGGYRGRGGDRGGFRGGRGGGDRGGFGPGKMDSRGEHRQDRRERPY

[7] = target: T7, HeLa cell extract proteins (Homo sapiens, UniProt Q5SRE5)
T7 construct: endogenous in cells; host or cells: HeLa cell extract
T7 sequence (Q5SRE5 whole entry): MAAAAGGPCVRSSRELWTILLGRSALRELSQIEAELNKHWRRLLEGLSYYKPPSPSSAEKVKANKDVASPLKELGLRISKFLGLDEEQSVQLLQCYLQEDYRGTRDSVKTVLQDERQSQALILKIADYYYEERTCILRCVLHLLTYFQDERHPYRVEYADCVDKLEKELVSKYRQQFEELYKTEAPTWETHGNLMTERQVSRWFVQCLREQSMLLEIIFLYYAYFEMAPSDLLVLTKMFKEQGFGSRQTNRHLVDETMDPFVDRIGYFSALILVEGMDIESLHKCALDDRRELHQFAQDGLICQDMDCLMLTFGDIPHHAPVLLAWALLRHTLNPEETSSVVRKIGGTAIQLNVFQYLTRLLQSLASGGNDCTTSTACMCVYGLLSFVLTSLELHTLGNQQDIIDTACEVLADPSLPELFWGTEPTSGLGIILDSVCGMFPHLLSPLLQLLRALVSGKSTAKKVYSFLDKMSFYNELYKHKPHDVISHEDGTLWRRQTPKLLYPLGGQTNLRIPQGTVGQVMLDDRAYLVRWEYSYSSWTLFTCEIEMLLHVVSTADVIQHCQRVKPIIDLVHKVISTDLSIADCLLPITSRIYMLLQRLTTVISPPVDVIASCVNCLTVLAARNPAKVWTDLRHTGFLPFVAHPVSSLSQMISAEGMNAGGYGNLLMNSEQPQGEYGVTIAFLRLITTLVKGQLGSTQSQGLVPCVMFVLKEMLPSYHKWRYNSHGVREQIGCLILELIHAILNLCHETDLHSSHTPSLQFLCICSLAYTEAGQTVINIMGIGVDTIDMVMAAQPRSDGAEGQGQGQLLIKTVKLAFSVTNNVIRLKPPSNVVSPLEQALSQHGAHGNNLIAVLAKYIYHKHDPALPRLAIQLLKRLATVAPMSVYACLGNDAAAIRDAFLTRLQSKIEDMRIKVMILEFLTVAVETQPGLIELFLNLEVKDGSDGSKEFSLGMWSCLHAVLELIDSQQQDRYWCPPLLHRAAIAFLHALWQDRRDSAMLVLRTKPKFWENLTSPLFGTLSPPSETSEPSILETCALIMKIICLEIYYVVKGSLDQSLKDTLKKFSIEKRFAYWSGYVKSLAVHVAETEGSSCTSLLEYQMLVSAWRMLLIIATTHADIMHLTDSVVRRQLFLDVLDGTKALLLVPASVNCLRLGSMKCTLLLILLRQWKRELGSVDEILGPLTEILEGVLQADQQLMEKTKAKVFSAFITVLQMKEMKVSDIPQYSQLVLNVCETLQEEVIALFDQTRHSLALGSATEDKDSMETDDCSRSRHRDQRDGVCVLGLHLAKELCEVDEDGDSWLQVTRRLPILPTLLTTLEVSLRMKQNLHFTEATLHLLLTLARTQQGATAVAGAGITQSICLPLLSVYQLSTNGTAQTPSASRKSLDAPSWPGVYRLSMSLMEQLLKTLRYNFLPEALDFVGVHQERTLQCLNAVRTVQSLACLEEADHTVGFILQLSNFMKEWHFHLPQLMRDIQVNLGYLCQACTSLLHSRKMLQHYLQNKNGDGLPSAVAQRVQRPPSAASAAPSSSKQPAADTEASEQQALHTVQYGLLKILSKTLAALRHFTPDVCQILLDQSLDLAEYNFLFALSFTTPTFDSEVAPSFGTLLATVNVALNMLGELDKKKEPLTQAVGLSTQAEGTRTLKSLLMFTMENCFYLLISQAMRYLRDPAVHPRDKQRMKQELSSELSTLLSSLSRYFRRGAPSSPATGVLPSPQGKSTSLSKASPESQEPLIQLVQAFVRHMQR

[8] = target: T8, HeLa cell extract proteins (Homo sapiens, UniProt P13674)
T8 construct: endogenous in cells; host or cells: HeLa cell extract
T8 sequence (P13674 18-534): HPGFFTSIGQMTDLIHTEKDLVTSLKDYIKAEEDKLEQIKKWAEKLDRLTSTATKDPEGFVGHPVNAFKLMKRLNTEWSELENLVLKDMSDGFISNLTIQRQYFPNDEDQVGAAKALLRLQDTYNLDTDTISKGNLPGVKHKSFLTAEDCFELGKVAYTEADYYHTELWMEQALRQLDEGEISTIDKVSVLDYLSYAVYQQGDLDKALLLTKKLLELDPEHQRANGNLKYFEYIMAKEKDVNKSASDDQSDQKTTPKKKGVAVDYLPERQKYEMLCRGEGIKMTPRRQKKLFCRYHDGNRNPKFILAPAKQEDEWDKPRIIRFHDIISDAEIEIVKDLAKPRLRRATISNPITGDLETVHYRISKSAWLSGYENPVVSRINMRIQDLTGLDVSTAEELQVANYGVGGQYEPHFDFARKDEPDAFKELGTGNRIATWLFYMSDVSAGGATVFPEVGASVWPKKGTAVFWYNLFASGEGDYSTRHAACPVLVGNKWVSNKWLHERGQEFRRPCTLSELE

[9] = target: T9, HeLa cell extract proteins (Homo sapiens, UniProt O15397)
T9 construct: endogenous in cells; host or cells: HeLa cell extract
T9 sequence (O15397 whole entry): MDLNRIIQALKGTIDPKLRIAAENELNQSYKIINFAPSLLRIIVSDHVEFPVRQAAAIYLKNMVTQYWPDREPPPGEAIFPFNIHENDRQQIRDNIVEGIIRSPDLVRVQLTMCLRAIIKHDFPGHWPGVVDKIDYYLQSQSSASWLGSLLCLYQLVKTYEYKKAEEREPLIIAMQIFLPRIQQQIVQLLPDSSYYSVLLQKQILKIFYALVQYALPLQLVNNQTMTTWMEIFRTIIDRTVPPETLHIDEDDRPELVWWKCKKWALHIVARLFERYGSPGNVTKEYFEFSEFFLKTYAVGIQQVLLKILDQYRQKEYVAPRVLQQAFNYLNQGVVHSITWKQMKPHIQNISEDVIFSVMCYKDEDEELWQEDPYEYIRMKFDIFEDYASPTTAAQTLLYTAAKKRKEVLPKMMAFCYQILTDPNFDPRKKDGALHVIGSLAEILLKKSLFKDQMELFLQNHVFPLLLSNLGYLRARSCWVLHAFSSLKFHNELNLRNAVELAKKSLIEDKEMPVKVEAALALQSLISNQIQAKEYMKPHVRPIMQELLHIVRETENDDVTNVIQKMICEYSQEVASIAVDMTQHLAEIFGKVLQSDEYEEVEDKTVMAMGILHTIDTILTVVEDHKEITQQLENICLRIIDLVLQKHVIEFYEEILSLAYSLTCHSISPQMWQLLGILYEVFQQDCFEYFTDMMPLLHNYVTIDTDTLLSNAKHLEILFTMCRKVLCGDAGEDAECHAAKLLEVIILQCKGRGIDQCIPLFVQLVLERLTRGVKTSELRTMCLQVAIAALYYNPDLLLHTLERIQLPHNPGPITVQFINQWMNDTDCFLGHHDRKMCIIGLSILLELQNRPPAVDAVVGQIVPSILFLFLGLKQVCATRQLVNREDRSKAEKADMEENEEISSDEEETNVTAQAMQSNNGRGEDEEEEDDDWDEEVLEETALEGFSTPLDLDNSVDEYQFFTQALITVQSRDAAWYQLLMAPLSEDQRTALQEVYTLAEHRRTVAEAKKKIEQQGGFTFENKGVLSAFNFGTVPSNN

[10] = target: T10, HeLa cell extract proteins (Homo sapiens, UniProt O75352)
T10 construct: endogenous in cells; host or cells: HeLa cell extract
T10 sequence (O75352 1-247): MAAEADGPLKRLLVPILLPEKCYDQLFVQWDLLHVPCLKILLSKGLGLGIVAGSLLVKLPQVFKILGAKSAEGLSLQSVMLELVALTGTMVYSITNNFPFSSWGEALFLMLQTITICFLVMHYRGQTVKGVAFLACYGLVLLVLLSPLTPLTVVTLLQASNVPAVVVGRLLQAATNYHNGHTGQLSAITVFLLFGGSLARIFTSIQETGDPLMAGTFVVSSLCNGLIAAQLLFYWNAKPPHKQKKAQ

[11] = HeLa, protein FUS (FUS-LIKE PROTEIN (FRAGMENT))

T1 sequence (Q99623 whole entry): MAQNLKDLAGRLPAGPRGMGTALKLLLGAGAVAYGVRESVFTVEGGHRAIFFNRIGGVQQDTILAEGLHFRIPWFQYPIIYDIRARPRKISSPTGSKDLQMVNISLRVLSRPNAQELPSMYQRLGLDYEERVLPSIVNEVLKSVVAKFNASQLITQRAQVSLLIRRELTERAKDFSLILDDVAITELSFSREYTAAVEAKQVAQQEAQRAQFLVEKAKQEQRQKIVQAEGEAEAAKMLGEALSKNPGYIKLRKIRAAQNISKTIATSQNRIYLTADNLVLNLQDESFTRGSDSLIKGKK

Compound | fold changes relative to vehicle control ([1]; protein PHB2, HeLa) | fold changes relative to vehicle control ([2]; HeLa, protein ACAD8) | fold changes relative to vehicle control ([3]; HeLa, protein RIOK2) | fold changes relative to vehicle control ([4]; HeLa, protein SLC25A5) | fold changes relative to vehicle control ([5]; protein PHGDH, HeLa) | fold changes relative to vehicle control [6, 11] | fold changes relative to vehicle control ([7]; HeLa, captured protein NUP188) | fold changes relative to vehicle control ([8]; HeLa, captured protein P4HA1) | fold changes relative to vehicle control ([9]; protein IPO8, HeLa) | fold changes relative to vehicle control ([10]; HeLa, protein MPDU1) | fold changes relative to vehicle control ([1]; HeLa, protein PHB2) | fold changes relative to vehicle control ([2]; protein ACAD8, HeLa) | fold changes relative to vehicle control ([3]; captured protein RIOK2, HeLa) | fold changes relative to vehicle control ([4]; captured protein SLC25A5, HeLa) | fold changes relative to vehicle control ([6]; protein FUS, HeLa) | fold changes relative to vehicle control ([7]; HeLa, protein NUP188) | fold changes relative to vehicle control ([8]; HeLa, protein P4HA1) | fold changes relative to vehicle control ([9]; captured protein IPO8, HeLa) | fold changes relative to vehicle control ([10]; protein MPDU1, HeLa) | other results
Nc1nc2c(c(=O)[nH]1)N(C=O)C(CNc1ccc(C(=O)N[C@@H](CCC(=O)O)C(=O)O)cc1)CN2 (stereo partly shown) [LEU, leucovorin] | 0.85 | 0.79 | 0.84 | 0.84 | 0.88 | 1.06 | 1.13 | 1.02 | 0.86 | 0.93 | – | – | – | – | – | – | – | – | – | –
Nc1nc2[nH]cc(CCc3ccc(C(=O)N[C@@H](CCC(=O)O)C(=O)O)cc3)c2c(=O)[nH]1 [PTX, pemetrexed] | – | – | – | – | – | – | – | – | – | – | – | – | – | – | – | – | – | – | – | fold changes relative to vehicle control [1]: 0.86; fold changes relative to vehicle control [2]: 0.83; fold changes relative to vehicle control [3]: 0.33; fold changes relative to vehicle control [4]: 0.9; fold changes relative to vehicle control [5]: 0.93; fold changes relative to vehicle control [6]: 1.03; fold changes relative to vehicle control [7]: 1.17; fold changes relative to vehicle control [8]: 0.88; fold changes relative to vehicle control [9]: 0.83; fold changes relative to vehicle control [10]: 1
CCCCCCOc1ccc(Cc2cnc(N)nc2N)cc1 [compound 1] | – | – | – | – | 0.99 | – | – | – | – | – | 0.95 | 1.11 | 0.94 | 0.96 | 1.05 | 1.07 | 0.9 | 0.55 | 1.04 | –
CCCCCCOc1cccc(Cc2cnc(N)nc2N)c1 [compound 2] | – | – | – | – | 1.25 | – | – | – | – | – | 0.91 | 1.19 | 0.95 | 0.9 | 1.21 | 1.08 | 1.05 | 0.8 | 0.89 | –
Nc1nc2cccc(-c3ccccc3)c2n1Cc1ccc(Cl)c(Cl)c1 [compound 3] | – | – | – | – | 1.5 | – | – | – | – | – | 1.04 | 1.13 | 0.95 | 1.02 | 1.02 | 1.07 | 0.98 | 0.6 | 1.05 | –
NCCOCCOCC(=O)Nc1nc2ncc(CNc3ccc(C(=O)NC(CCC(=O)O)C(=O)O)cc3)nc2c(=O)[nH]1 (stereo not shown) [compound 6] | 0.95 | 0.75 | 0.82 | 0.97 | 1.06 | 1.09 | 1.17 | 1 | 0.91 | 1.08 | – | – | – | – | – | – | – | – | – | –
NCCCNc1ccc(C(=O)NC(CCC(=O)O)C(=O)O)cc1 (stereo not shown) [compound 7] | 1 | 0.77 | 0.87 | 0.96 | 1.06 | 1.25 | 1.07 | 1.04 | 0.82 | 0.99 | – | – | – | – | – | – | – | – | – | –
